Legend:
BRAF V600E = biological target: T1, BRAF V600E (Homo sapiens, UniProt P15056, V600E); test: Cellular assay of target protein degradation, T-Rex 293 cells stably transfected with HA-BRAF_V600E (HA immunofluorescence, high content imaging); type: cell-based; details: T-Rex 293 HA-BRAF V600E; for DC50: half maximal degradation, read-out: BRaf V600E DC50; for Dmax: maximum degradation observed
T1 construct: expressed in transfected cells
In short: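 Doxycycline-induced (1 ng/mL) cells were treated 24 h at 37 °C with compound at 1 μM to 0.1 nM final in 0.1% DMSO. After fixation, permeabilization and blocking, anti-HA staining was imaged by high-content reading; DC50 and Dmax (% of control) were derived.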

BRAF G466V = biological target: T2, BRAF G466V (Homo sapiens, UniProt P15056, G466V); test: Cellular assay of target protein degradation, T-Rex 293 cells stably transfected with HA-BRAF G466V (HA immunofluorescence, high content imaging); type: cell-based; details: T-Rex 293 HA-BRAF G466V; for DC50: half maximal degradation, read-out: BRaf G466V DC50; for Dmax: maximum degradation observed
T2 construct: expressed in transfected cells
T2 sequence (P15056 whole entry G466V): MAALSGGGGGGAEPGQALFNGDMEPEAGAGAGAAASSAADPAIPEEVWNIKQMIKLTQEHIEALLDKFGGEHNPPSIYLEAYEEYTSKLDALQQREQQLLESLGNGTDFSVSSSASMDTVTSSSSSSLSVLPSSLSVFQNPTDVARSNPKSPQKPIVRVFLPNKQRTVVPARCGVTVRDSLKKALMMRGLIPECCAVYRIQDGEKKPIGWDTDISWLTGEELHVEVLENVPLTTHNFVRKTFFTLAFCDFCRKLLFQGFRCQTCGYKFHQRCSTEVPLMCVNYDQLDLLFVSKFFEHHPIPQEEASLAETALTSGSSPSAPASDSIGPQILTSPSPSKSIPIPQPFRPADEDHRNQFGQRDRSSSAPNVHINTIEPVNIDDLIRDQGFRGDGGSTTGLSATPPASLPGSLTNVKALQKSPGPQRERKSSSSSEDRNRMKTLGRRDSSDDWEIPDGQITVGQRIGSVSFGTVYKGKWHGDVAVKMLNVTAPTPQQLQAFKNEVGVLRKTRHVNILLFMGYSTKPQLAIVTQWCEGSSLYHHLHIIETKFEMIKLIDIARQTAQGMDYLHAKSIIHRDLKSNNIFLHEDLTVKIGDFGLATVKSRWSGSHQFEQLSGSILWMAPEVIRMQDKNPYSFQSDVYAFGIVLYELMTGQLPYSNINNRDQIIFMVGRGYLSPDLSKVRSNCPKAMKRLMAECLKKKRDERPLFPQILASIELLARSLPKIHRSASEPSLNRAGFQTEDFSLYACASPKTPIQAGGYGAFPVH
In short: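 Cells expressing doxycycline-induced (0.75 ng/mL) HA-BRAF G466V were treated with compound at 30 nM to 3 pM in 0.1% DMSO for 24 hours at 37° C. After fixation and permeabilization, HA was immunostained and quantified by high content imaging to derive DC50 and Dmax.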

T1 sequence (P15056 whole entry V600E): as the sequence (P15056 whole entry G466V) above, with V466G, V600E counted along it

| SMILES | DC50 (BRAF V600E) | Dmax (BRAF V600E) | DC50 (BRAF G466V) | Dmax (BRAF G466V) |
| --- | --- | --- | --- | --- |
| O=C1CCC(N2Cc3cc(C4CCN(CC5CCN(c6ccc(-c7cnc8[nH]cc(C(=O)c9c(F)ccc(NS(=O)(=O)N%10CCC(F)(F)C%10)c9F)c8c7)cc6)CC5)CC4)ccc3C2=O)C(=O)N1 (stereo not drawn) [Compound 190, N-[3-(5-{4-[4-({4-[2-(2,6-dioxopiperidin-3-yl)-1-oxo-2,3-dihydro-1H-isoindol-5-yl]piperidin-1-yl}methyl)piperidin-1-yl]phenyl}-1H-pyrrolo[2,3-b]pyridine-3-carbonyl)-2,4-difluorophenyl]-3,3-difluoropyrrolidine-1-sulfonamide] | < 5 nM | 35 to 70% | 1 to 10 nM | > 70% |
| COc1cc(N2CCC(CN3CC4(C3)CN(c3ccc(-c5cnc6[nH]cc(C(=O)c7c(F)ccc(NS(=O)(=O)N8CCC(F)(F)C8)c7F)c6c5)cc3)C4)CC2)cc2c1C(=O)N(C1CCC(=O)NC1=O)C2 (stereo not drawn) [Compound 247, N-[3-(5-{4-[6-({1-[2-(2,6-dioxopiperidin-3-yl)-7-methoxy-1-oxo-2,3-dihydro-1H-isoindol-5-yl]piperidin-4-yl}methyl)-2,6-diazaspiro[3.3]heptan-2-yl]phenyl}-1H-pyrrolo[2,3-b]pyridine-3-carbonyl)-2,4-difluorophenyl]-3,3-difluoropyrrolidine-1-sulfonamide] | 5 to 50 nM | < 35% | 1 to 10 nM | > 70% |
| O=C1CC[C@H](N2Cc3cc(C4CCN(CC5CCN(c6ccc(-c7cnc8[nH]cc(C(=O)c9c(F)ccc(NS(=O)(=O)N%10CC[C@@H](F)C%10)c9F)c8c7)cc6)CC5)CC4)ccc3C2=O)C(=O)N1 [Compound 160, (3R)—N-[3-[5-[4-[4-[[4-[2-[(3S)-2,6-dioxo-3-piperidyl]-1-oxo-isoindolin-5-yl]-1-piperidyl]methyl]-1-piperidyl]phenyl]-1H-pyrrolo[2,3-b]pyridine-3-carbonyl]-2,4-difluoro-phenyl]-3-fluoro-pyrrolidine-1-sulfonamide] | < 5 nM | 35 to 70% | < 1 nM | > 70% |
| O=C1CC[C@H](NC(=O)c2ccc(N3CC4(CN(CC5CCN(c6ccc(-c7cnc8[nH]cc(C(=O)c9c(F)ccc(NS(=O)(=O)N%10CC[C@@H](F)C%10)c9F)c8c7)cc6)CC5)C4)C3)cn2)C(=O)N1 [Compound 345, 5-(6-{[1-(4-{3-[2,6-difluoro-3-({[(3R)-3-fluoropyrrolidin-1-yl]sulfonyl}amino)benzoyl]-1H-pyrrolo[2,3-b]pyridin-5-yl}phenyl)piperidin-4-yl]methyl}-2,6-diazaspiro[3.3]heptan-2-yl)-N-[(3S)-2,6-dioxopiperidin-3-yl]pyridine-2-carboxamide] | 5 to 50 nM | 35 to 70% | 1 to 10 nM | > 70% |
| O=C1CCC(N2Cc3cc(C4CCN(CC5(O)CCN(c6ccc(-c7cnc8[nH]cc(C(=O)c9c(F)ccc(NS(=O)(=O)N%10CC[C@@H](F)C%10)c9F)c8c7)cc6)CC5)CC4)ccc3C2=O)C(=O)N1 (stereo partly drawn) [Compound 119, (3R)-N-[3-(5-{4-[4-({4-[2-(2,6-dioxopiperidin-3-yl)-1-oxo-2,3-dihydro-1H-isoindol-5-yl]piperidin-1-yl}methyl)-4-hydroxypiperidin-1-yl]phenyl}-1H-pyrrolo[2,3-b]pyridine-3-carbonyl)-2,4-difluorophenyl]-3-fluoropyrrolidine-1-sulfonamide] | < 5 nM | 35 to 70% | < 1 nM | 35 to 70% |
| COc1cc([C@H](O)CCN2CCN(c3ccc(-c4cnc5[nH]cc(C(=O)c6c(F)ccc(NS(=O)(=O)N7CC[C@@H](F)C7)c6F)c5c4)cc3)CC2)cc2c1C(=O)N([C@@H]1CCC(=O)NC1=O)C2 [Compound 187, (3R)-N-{3-[5-(4-{4-[(3R)-3-{2-[(3R)-2,6-dioxopiperidin-3-yl]-7-methoxy-1-oxo-2,3-dihydro-1H-isoindol-5-yl}-3-hydroxypropyl]piperazin-1-yl}phenyl)-1H-pyrrolo[2,3-b]pyridine-3-carbonyl]-2,4-difluorophenyl}-3-fluoropyrrolidine-1-sulfonamide] | 50 to 500 nM | 35 to 70% | 1 to 10 nM | > 70% |
| O=C1CCC(N2Cc3cc(C4CCN(C[C@@H]5[C@H]6CN(c7ccc(-c8cnc9[nH]cc(C(=O)c%10c(F)ccc(NS(=O)(=O)N%11CC[C@@H](F)C%11)c%10F)c9c8)cc7)C[C@@H]56)CC4)ccc3C2=O)C(=O)N1 (stereo partly drawn) [Compound 179, (3R)-N-[3-(5-{4-[(1R,5S,6S)-6-({4-[2-(2,6-dioxopiperidin-3-yl)-1-oxo-2,3-dihydro-1H-isoindol-5-yl]piperidin-1-yl}methyl)-3-azabicyclo[3.1.0]hexan-3-yl]phenyl}-1H-pyrrolo[2,3-b]pyridine-3-carbonyl)-2,4-difluorophenyl]-3-fluoropyrrolidine-1-sulfonamide] | 5 to 50 nM | 35 to 70% | 1 to 10 nM | > 70% |
| O=C1CCC(N2Cc3cc(N4CCC(CN5CC(Cc6ncc(-c7cnc8[nH]cc(C(=O)c9c(F)ccc(NS(=O)(=O)N%10CC[C@@H](F)C%10)c9F)c8c7)cn6)C5)CC4)ccc3C2=O)C(=O)N1 (stereo partly drawn) [Compound 307, (3R)-N-{3-[5-(2-{[1-({1-[2-(2,6-dioxopiperidin-3-yl)-1-oxo-2,3-dihydro-1H-isoindol-5-yl]piperidin-4-yl}methyl)azetdidin-3-yl]methyl}pyrimidin-5-yl)-1H-pyrrolo[2,3-b]pyridine-3-carbonyl]-2,4-difluorophenyl}-3-fluoropyrrolidine-1-sulfonamide] | > 500 nM | > 70% | 1 to 10 nM | 35 to 70% |
| O=C1CC[C@H](N2Cc3cc(C4CCN(CC5CCN(c6ccc(-c7cnc8[nH]cc(C(=O)c9c(F)ccc(NS(=O)(=O)CC%10CC%10)c9F)c8c7)cc6)CC5)CC4)ccc3C2=O)C(=O)N1 [Compound 206, 1-cyclopropyl-N-{3-[5-(4-{4-[(4-{2-[(3S)-2,6-dioxopiperidin-3-yl]-1-oxo-2,3-dihydro-1H-isoindol-5-yl}piperidin-1-yl)methyl]piperidin-1-yl}phenyl)-1H-pyrrolo[2,3-b]pyridine-3-carbonyl]-2,4-difluorophenyl}methanesulfonamide] | 5 to 50 nM | 35 to 70% | < 1 nM | 35 to 70% |

Continued, values first:

| DC50 (BRAF V600E) | Dmax (BRAF V600E) | DC50 (BRAF G466V) | Dmax (BRAF G466V) | SMILES |
| --- | --- | --- | --- | --- |
| > 500 nM | – | > 30 nM | – | O=C1CCC(N2Cc3cc(N4CC[C@H]4COc4ccc(-c5cnc6[nH]cc(C(=O)c7c(F)ccc(NS(=O)(=O)N8CC[C@@H](F)C8)c7F)c6c5)cc4)ccc3C2=O)C(=O)N1 (stereo partly drawn) [Compound 23, (3R)-N-{3-[5-(4-{[(2S)-1-[2-(2,6-dioxopiperidin-3-yl)-1-oxo-2,3-dihydro-1H-isoindol-5-yl]azetidin-2-yl]methoxy}phenyl)-1H-pyrrolo[2,3-b]pyridine-3-carbonyl]-2,4-difluorophenyl}-3-fluoropyrrolidine-1-sulfonamide] |
| 50 to 500 nM | 35 to 70% | 1 to 10 nM | > 70% | O=C1CCC(N2Cc3cc(C4CCN(C[C@H](O)Cc5ccc(-c6cnc7[nH]cc(C(=O)c8c(F)ccc(NS(=O)(=O)N9CC[C@@H](F)C9)c8F)c7c6)cc5)CC4)ccc3C2=O)C(=O)N1 (stereo partly drawn) [Compound 110, (3R)-N-[3-(5-{4-[(2R)-3-{4-[2-(2,6-dioxopiperidin-3-yl)-1-oxo-2,3-dihydro-1H-isoindol-5-yl]piperidin-1-yl}-2-hydroxypropyl]phenyl}-1H-pyrrolo[2,3-b]pyridine-3-carbonyl)-2,4-difluorophenyl]-3-fluoropyrrolidine-1-sulfonamide] |
| < 5 nM | 35 to 70% | < 1 nM | 35 to 70% | O=C1CC[C@H](N2Cc3cc(CCCCN4CC5(C4)CN(c4ccc(-c6cnc7[nH]cc(C(=O)c8c(F)ccc(NS(=O)(=O)N9CC[C@@H](F)C9)c8F)c7c6)cc4)C5)ccc3C2=O)C(=O)N1 [Compound 62, (3R)-N-[3-(5-{4-[6-(4-{2-[(3S)-2,6-dioxopiperidin-3-yl]-1-oxo-2,3-dihydro-1H-isoindol-5-yl}butyl)-2,6-diazaspiro[3.3]heptan-2-yl]phenyl}-1H-pyrrolo[2,3-b]pyridine-3-carbonyl)-2,4-difluorophenyl]-3-fluoropyrrolidine-1-sulfonamide] |
| 5 to 50 nM | 35 to 70% | 1 to 10 nM | > 70% | O=C1CCC(N2Cc3cc(C4CCN(CCOc5ccc(-c6cnc7[nH]cc(C(=O)c8c(F)ccc(NS(=O)(=O)N9CC[C@@H](F)C9)c8F)c7c6)cc5)CC4)ccc3C2=O)C(=O)N1 (stereo partly drawn) [Compound 69, (3R)-N-(3-{5-[4-(2-{4-[2-(2,6-dioxopiperidin-3-yl)-1-oxo-2,3-dihydro-1H-isoindol-5-yl]piperidin-1-yl}ethoxy)phenyl]-1H-pyrrolo[2,3-b]pyridine-3-carbonyl}-2,4-difluorophenyl)-3-fluoropyrrolidine-1-sulfonamide] |
| 5 to 50 nM | 35 to 70% | 1 to 10 nM | > 70% | O=C1CCC(N2Cc3cc(CCCCN4CC5(C4)CN(c4ccc(-c6cnc7[nH]cc(C(=O)c8c(F)ccc(NS(=O)(=O)N9CC[C@@H](F)C9)c8F)c7c6)cc4)C5)ccc3C2=O)C(=O)N1 (stereo partly drawn) [Compound 321, (3R)-N-(3-{5-[4-(6-{4-[2-(2,6-dioxopiperidin-3-yl)-1-oxo-2,3-dihydro-1H-isoindol-5-yl]butyl}-2,6-diazaspiro[3.3]heptan-2-yl)phenyl]-1H-pyrrolo[2,3-b]pyridine-3-carbonyl}-2,4-difluorophenyl)-3-fluoropyrrolidine-1-sulfonamide] |

Reference: patent publication US12180193B2, “Accelerating fibrosarcoma protein degrading compounds and associated methods of use” (Arvinas Operations, Inc., priority 2020, dated 2024)
